Test results from ChEMBL document CHEMBL4308841, “Synthesis, in vitro antiproliferative activity, and kinase inhibitory effects of pyrazole-containing diarylureas and diarylamides” (Eur J Med Chem, 2018).

tested on: HL-60(TB); test: Growth inhibition of human HL-60(TB) cells assessed as cell growth at 0.01 uM incubated for 48 hrs by sulforhodamine B assay relative to control; format: functional; details: HL-60, 48 h, read-out: Activity

Compound	growth at 0.01 µM [%]
COc1cc(Cl)cc(-c2nn(-c3cccc(NC(=O)c4cccc(C(F)(F)F)c4)c3)cc2-c2ccncc2)c1	59

tested on: MDA-MB-468; test: Growth inhibition of human MDA-MB-468 cells assessed as cell growth at 100 uM incubated for 48 hrs by sulforhodamine B assay relative to control; format: functional; details: MDA-MB-468, 48 h, read-out: Activity

Compound	growth at 100 µM [%]
COc1cc(Cl)cc(-c2nn(-c3cccc(NC(=O)c4cccc(C(F)(F)F)c4)c3)cc2-c2ccncc2)c1	28

tested on: NCI-H322M; test: Growth inhibition of human NCI-H322M cells assessed as cell growth at 0.1 uM incubated for 48 hrs by sulforhodamine B assay relative to control; format: functional; details: read-out: Activity

Compound	growth at 0.1 µM [%]
COc1cc(Cl)cc(-c2nn(-c3cccc(NC(=O)c4cccc(C(F)(F)F)c4)c3)cc2-c2ccncc2)c1	95

tested on: NCI-H460; test: Growth inhibition of human NCI-H460 cells assessed as cell growth at 0.01 uM incubated for 48 hrs by sulforhodamine B assay relative to control; format: functional; details: NCI-H460, 48 h, read-out: Activity

Compound	growth at 0.01 µM [%]
COc1cc(Cl)cc(-c2nn(-c3cccc(NC(=O)c4cccc(C(F)(F)F)c4)c3)cc2-c2ccncc2)c1	101

tested on: SNB-75; test: Growth inhibition of human SNB75 cells assessed as cell growth at 0.01 uM incubated for 48 hrs by sulforhodamine B assay relative to control; format: functional; details: SNB-75, 48 h, read-out: Activity

Compound	growth at 0.01 µM [%]
COc1cc(Cl)cc(-c2nn(-c3cccc(NC(=O)c4cccc(C(F)(F)F)c4)c3)cc2-c2ccncc2)c1	90

tested on: PC-3; test: Growth inhibition of human PC3 cells incubated for 48 hrs by sulforhodamine B assay; format: functional, cell-based; details: PC-3, 48 h

Compound	IC50 [nM]
COc1cc(Cl)cc(-c2nn(-c3cccc(NC(=O)c4cccc(C(F)(F)F)c4)c3)cc2-c2ccncc2)c1	2710

same assay, conditions: PC-3, 48 h, read-out: GI50

Compound	GI50 [nM]
COc1cc(Cl)cc(-c2nn(-c3cccc(NC(=O)c4cccc(C(F)(F)F)c4)c3)cc2-c2ccncc2)c1	2710

same assay, conditions: PC-3, 48 h, read-out: LC50 (the source's name)

Compound	CC50 [µM]
COc1cc(Cl)cc(-c2nn(-c3cccc(NC(=O)c4cccc(C(F)(F)F)c4)c3)cc2-c2ccncc2)c1	> 100

same assay, conditions: PC-3, 48 h, read-out: TGI

Compound	TGI [µM]
COc1cc(Cl)cc(-c2nn(-c3cccc(NC(=O)c4cccc(C(F)(F)F)c4)c3)cc2-c2ccncc2)c1	> 100

same assay, conditions: PC-3, 48 h, read-out: pGI50 (converted)

Compound	GI50 [nM]
COc1cc(Cl)cc(-c2nn(-c3cccc(NC(=O)c4cccc(C(F)(F)F)c4)c3)cc2-c2ccncc2)c1	2690

same assay, conditions: PC-3, 48 h, read-out: pLC50 (the source's name) (converted)

Compound	CC50 [µM]
COc1cc(Cl)cc(-c2nn(-c3cccc(NC(=O)c4cccc(C(F)(F)F)c4)c3)cc2-c2ccncc2)c1	> 100

same assay, conditions: PC-3, 48 h, read-out: pTGI (converted)

Compound	TGI [µM]
COc1cc(Cl)cc(-c2nn(-c3cccc(NC(=O)c4cccc(C(F)(F)F)c4)c3)cc2-c2ccncc2)c1	> 100

tested on: MOLT-4; test: Growth inhibition of human MOLT4 cells incubated for 48 hrs by sulforhodamine B assay; format: functional, cell-based; details: MOLT-4, 48 h, read-out: GI50

Compound	GI50 [nM]
COc1cc(Cl)cc(-c2nn(-c3cccc(NC(=O)c4cccc(C(F)(F)F)c4)c3)cc2-c2ccncc2)c1	2730

same assay, conditions: MOLT-4, 48 h, read-out: LC50 (the source's name)

Compound	CC50 [µM]
COc1cc(Cl)cc(-c2nn(-c3cccc(NC(=O)c4cccc(C(F)(F)F)c4)c3)cc2-c2ccncc2)c1	> 100

same assay, conditions: MOLT-4, 48 h, read-out: TGI

Compound	TGI [µM]
COc1cc(Cl)cc(-c2nn(-c3cccc(NC(=O)c4cccc(C(F)(F)F)c4)c3)cc2-c2ccncc2)c1	> 100

same assay, conditions: MOLT-4, 48 h, read-out: pGI50 (converted)

Compound	GI50 [nM]
COc1cc(Cl)cc(-c2nn(-c3cccc(NC(=O)c4cccc(C(F)(F)F)c4)c3)cc2-c2ccncc2)c1	2750

same assay, conditions: MOLT-4, 48 h, read-out: pLC50 (the source's name) (converted)

Compound	CC50 [µM]
COc1cc(Cl)cc(-c2nn(-c3cccc(NC(=O)c4cccc(C(F)(F)F)c4)c3)cc2-c2ccncc2)c1	> 100

same assay, conditions: MOLT-4, 48 h, read-out: pTGI (converted)

Compound	TGI [µM]
COc1cc(Cl)cc(-c2nn(-c3cccc(NC(=O)c4cccc(C(F)(F)F)c4)c3)cc2-c2ccncc2)c1	> 100

tested on: SK-MEL-5; test: Growth inhibition of human SK-MEL-5 cells assessed as cell growth at 100 uM incubated for 48 hrs by sulforhodamine B assay relative to control; format: functional; details: SK-MEL-5, 48 h, read-out: Activity

Compound	growth at 100 µM [%]
COc1cc(Cl)cc(-c2nn(-c3cccc(NC(=O)c4cccc(C(F)(F)F)c4)c3)cc2-c2ccncc2)c1	20

tested on: MDA-MB-435; test: Growth inhibition of human MDA-MB-435 cells assessed as cell growth at 0.01 uM incubated for 48 hrs by sulforhodamine B assay relative to control; format: functional; details: MDA-MB-435, 48 h, read-out: Activity

Compound	growth at 0.01 µM [%]
COc1cc(Cl)cc(-c2nn(-c3cccc(NC(=O)c4cccc(C(F)(F)F)c4)c3)cc2-c2ccncc2)c1	98

tested on: CAKI-1; test: Growth inhibition of human Caki1 cells assessed as cell growth at 0.1 uM incubated for 48 hrs by sulforhodamine B assay relative to control; format: functional; details: CAKI-1, 48 h, read-out: Activity

Compound	growth at 0.1 µM [%]
COc1cc(Cl)cc(-c2nn(-c3cccc(NC(=O)c4cccc(C(F)(F)F)c4)c3)cc2-c2ccncc2)c1	94

tested on: DU-145; test: Growth inhibition of human DU145 cells assessed as cell growth at 0.01 uM incubated for 48 hrs by sulforhodamine B assay relative to control; format: functional; details: DU-145, 48 h, read-out: Activity

Compound	growth at 0.01 µM [%]
COc1cc(Cl)cc(-c2nn(-c3cccc(NC(=O)c4cccc(C(F)(F)F)c4)c3)cc2-c2ccncc2)c1	109

tested on: SF-539; test: Growth inhibition of human SF539 cells assessed as cell growth at 100 uM incubated for 48 hrs by sulforhodamine B assay relative to control; format: functional; details: SF-539, 48 h, read-out: Activity

Compound	growth at 100 µM [%]
COc1cc(Cl)cc(-c2nn(-c3cccc(NC(=O)c4cccc(C(F)(F)F)c4)c3)cc2-c2ccncc2)c1	53

tested on: SK-MEL-2; test: Growth inhibition of human SK-MEL-2 cells assessed as cell growth at 100 uM incubated for 48 hrs by sulforhodamine B assay relative to control; format: functional; details: SK-MEL-2, 48 h, read-out: Activity

Compound	growth at 100 µM [%]
COc1cc(Cl)cc(-c2nn(-c3cccc(NC(=O)c4cccc(C(F)(F)F)c4)c3)cc2-c2ccncc2)c1	47

tested on: SN12C; test: Growth inhibition of human SN12C cells assessed as cell growth at 1 uM incubated for 48 hrs by sulforhodamine B assay relative to control; format: functional; details: read-out: Activity

Compound	growth at 1 µM [%]
COc1cc(Cl)cc(-c2nn(-c3cccc(NC(=O)c4cccc(C(F)(F)F)c4)c3)cc2-c2ccncc2)c1	58

tested on: MCF7; test: Growth inhibition of human MCF7 cells assessed as cell growth at 1 uM incubated for 48 hrs by sulforhodamine B assay relative to control; format: functional; details: MCF7, 48 h, read-out: Activity

Compound	growth at 1 µM [%]
COc1cc(Cl)cc(-c2nn(-c3cccc(NC(=O)c4cccc(C(F)(F)F)c4)c3)cc2-c2ccncc2)c1	57

tested on: MDA-MB-231; test: Growth inhibition of human MDA-MB-231 cells incubated for 48 hrs by sulforhodamine B assay; format: functional, cell-based; details: MDA-MB-231, 48 h, read-out: GI50

Compound	GI50 [nM]
COc1cc(Cl)cc(-c2nn(-c3cccc(NC(=O)c4cccc(C(F)(F)F)c4)c3)cc2-c2ccncc2)c1	1380

same assay, conditions: MDA-MB-231, 48 h, read-out: LC50 (the source's name)

Compound	CC50 [µM]
COc1cc(Cl)cc(-c2nn(-c3cccc(NC(=O)c4cccc(C(F)(F)F)c4)c3)cc2-c2ccncc2)c1	> 100

same assay, conditions: MDA-MB-231, 48 h, read-out: TGI

Compound	TGI [µM]
COc1cc(Cl)cc(-c2nn(-c3cccc(NC(=O)c4cccc(C(F)(F)F)c4)c3)cc2-c2ccncc2)c1	99.7
